# From patent US10179785B2, “Imidazotriazinone or imidazopyrazinone derivatives, and use thereof” (ST PHARM CO., LTD., priority 2014, dated 2019)
# Structures can show the parent of a compound that is named as a salt.
# Target: T1, tankyrase 1 (Homo sapiens, UniProt O95271)
# T1 construct: purchased Trevigen 4700-096-K
# T1 sequence (O95271 1-1327): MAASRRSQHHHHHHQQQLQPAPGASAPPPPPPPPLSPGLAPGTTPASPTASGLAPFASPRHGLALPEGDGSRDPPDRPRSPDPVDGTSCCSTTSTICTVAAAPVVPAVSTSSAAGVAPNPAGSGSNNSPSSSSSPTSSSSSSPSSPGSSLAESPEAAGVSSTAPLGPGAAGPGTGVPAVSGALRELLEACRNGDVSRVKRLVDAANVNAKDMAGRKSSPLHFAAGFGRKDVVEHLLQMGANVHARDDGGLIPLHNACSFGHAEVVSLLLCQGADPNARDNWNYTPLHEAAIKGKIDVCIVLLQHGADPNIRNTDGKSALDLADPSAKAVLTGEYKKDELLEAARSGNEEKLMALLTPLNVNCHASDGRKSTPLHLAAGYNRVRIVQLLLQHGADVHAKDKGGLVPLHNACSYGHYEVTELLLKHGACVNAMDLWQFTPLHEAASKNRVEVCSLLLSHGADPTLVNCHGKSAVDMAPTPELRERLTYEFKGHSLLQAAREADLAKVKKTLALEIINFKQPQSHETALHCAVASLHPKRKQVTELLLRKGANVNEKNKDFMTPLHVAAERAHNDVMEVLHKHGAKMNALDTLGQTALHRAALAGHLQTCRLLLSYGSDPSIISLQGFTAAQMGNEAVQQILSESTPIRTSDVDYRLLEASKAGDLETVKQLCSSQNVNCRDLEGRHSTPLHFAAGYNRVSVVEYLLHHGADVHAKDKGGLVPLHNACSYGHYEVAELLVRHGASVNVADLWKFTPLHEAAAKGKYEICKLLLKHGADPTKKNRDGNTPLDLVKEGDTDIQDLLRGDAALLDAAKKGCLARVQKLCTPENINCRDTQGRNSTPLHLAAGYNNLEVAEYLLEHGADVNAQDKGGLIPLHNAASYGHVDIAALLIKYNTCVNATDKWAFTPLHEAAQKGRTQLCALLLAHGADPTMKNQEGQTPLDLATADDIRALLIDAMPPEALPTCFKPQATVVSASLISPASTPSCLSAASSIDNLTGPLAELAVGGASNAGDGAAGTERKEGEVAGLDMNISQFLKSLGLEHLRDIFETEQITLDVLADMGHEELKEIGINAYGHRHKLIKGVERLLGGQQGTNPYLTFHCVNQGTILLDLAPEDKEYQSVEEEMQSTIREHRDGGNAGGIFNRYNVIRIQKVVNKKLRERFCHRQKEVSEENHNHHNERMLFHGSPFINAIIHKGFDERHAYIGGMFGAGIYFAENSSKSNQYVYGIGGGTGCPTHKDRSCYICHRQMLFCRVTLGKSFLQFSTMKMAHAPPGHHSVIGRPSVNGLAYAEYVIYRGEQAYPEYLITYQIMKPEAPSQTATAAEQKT
# Experiment: Analysis of activity of tankyrase 1 (Trevigen kit, ELISA absorbance at 450 nm)
# Assay type: biochemical
# Details: not given
# Protocol: Activities of novel compounds synthesized according to Examples 1 to 48 against tankyrase 1 were analyzed using a Trevigen kit (Cat. No. 4700-096-K). Poly PAR histone protein-coated 96-well plate, anti-PAR monoclonal antibody and goat anti-mouse IgG-HRP were used for measurement of absorbance by ELISA method. Specifically, 20× I-PAR assay buffer was diluted to 1× by adding water, and 50 μL of the diluted buffer was added to each well of the 96-well plate followed by reacting at rt for 30 min. Then, the supernatant was completely removed from each well and 10 μL of 1× I-PAR assay buffer and 15 μL of assay substrate were added to each well along with 1 μL of a 50× solution of inhibitors to be tested, which were the compounds obtained in the Examples 1 to 48. 10 m Units/μL of tankyrase 1 enzyme was diluted 50-fold with 1× I-PAR assay buffer and 25 μL of the diluted enzyme was added to each well and reacted while stirring at rt for 30 min. One without any compound of the present invention was used as a positive control and another containing 1× I-PAR assay buffer with the same volume instead of tankyrase 1 enzyme was used as a negative control. Upon completion of the reaction, 200 μL of PBSX, which was prepared by adding 0.1% triton X-100 to PBS, was added and removed and this washing process was repeated twice. Washing was repeated twice more using PBS in the same manner. 5× antibody diluent was diluted with distilled water to 1× concentration, 50 μL of the diluted goat anti-mouse IgG-HRP to 1/2000 was added to each well and reacted while stirring at rt for 30 min. Washes were carried out twice using PBSX and PBS, respectively. After addition of 50 μL of TACS-sapphire to each well of the plate, the plate was blocked from light to react for 10 min to 15 min and the color of the reaction solution turned blue. To stop the reaction, 50 μL of 0.2N HCl was added to turn the solution yellow. Finally, the absorbance of the resulting solution was measured at 450 nm.
row,IC50 [nM],Structure (SMILES)
1,110,"Cc1ncc2c(=O)[nH]c(N3CCN(c4ccccc4F)CC3)nn12 [compound 1, 2-(4-(2-Fluorophenyl)piperazin-1-yl)-7-methylimidazo[1,5-f][1,2,4]triazin-4(3H)-one]"
2,31.8,"COCCOc1cc(F)c(N2CCN(c3nn4c(C)ncc4c(=O)[nH]3)CC2)c(F)c1 [compound 2, 2-(4-(2,6-Difluoro-4-(2-methoxyethoxy)phenyl)piperazin-1-yl)-7-methylimidazo[1,5-f][1,2,4]triazin-4(3H)-one]"
3,96.3,"Cc1ncc2c(=O)[nH]c(N3CCN(c4c(F)cc(OC5COC5)cc4F)CC3)nn12 [compound 12, 2-(4-(2,6-Difluoro-4-(oxetan-3-yloxy)phenyl)piperazin-1-yl)-7-methylimidazo[1,5-f][1,2,4]triazin-4(3H)-one]"
4,17.9,"Cc1ncc2c(=O)[nH]c(N3CCN(c4c(F)cccc4F)CC3)nn12 [compound 15, 2-(4-(2,6-Difluorophenyl)piperazin-1-yl)-7-methylimidazo[1,5-f][1,2,4]triazin-4(3H)-one]"

# Same assay, conditions: Trevigen kit Cat. No. 4700-096-K; reaction at rt for 30 min; read-out: TNKS1 (IC50)
row,Structure (SMILES),IC50 [nM]
1,"Cc1ncc2c(=O)[nH]c(N3CCN(c4c(F)cc(OCc5ccccc5)cc4F)CC3)nn12 [compound 3, 2-(4-(4-(Benzyloxy)-2,6-difluorophenyl)piperazin-1-yl)-7-methylimidazo[1,5-f][1,2,4]triazin-4(3H)-one]",494
2,"COCCN(C)Cc1cc(F)c(N2CCN(c3nn4c(C)ncc4c(=O)[nH]3)CC2)c(F)c1 [compound 19, 2-(4-(2,6-Difluoro-4-(((2-methoxyethyl)(methyl)amino)methyl)phenyl)piperazin-1-yl)-7-methylimidazo[1,5-f][1,2,4]triazin-4(3H)-one]",102
3,"Cc1ncc2c(=O)[nH]c(N3CCN(c4c(F)cc(OCCN5CCCC5)cc4F)CC3)nn12 [compound 24, 2-(4-(2,6-Difluoro-4-(2-(pyrrolidin-1-yl)ethoxy)phenyl)piperazin-1-yl)-7-methylimidazo[1,5-f][1,2,4]triazin-4(3H)-one]",93.4
4,"Cc1ncc2c(=O)[nH]c(N3CCN(c4c(F)cc(OCC(=O)N5CCCC5)cc4F)CC3)nn12 [compound 29, 2-(4-(2,6-Difluoro-4-(2-oxo-2-(pyrrolidin-1-yl)ethoxy)phenyl)piperazin-1-yl)-7-methylimidazo[1,5-f][1,2,4]triazin-4(3H)-one]",84.8
5,"Cc1ncc2c(=O)[nH]c(N3CCN(c4c(F)cc(OCCN=[N+]=[N-])cc4F)CC3)nn12 [compound 31, 2-(4-(4-(2-Azidoethoxy)-2,6-difluorophenyl)piperazin-1-yl)-7-methylimidazo[1,5-f][1,2,4]triazin-4(3H)-one]",171

# Results, then the compound that gave them:
row,IC50 [nM],Structure (SMILES)
1,79.5,"Cc1ncc2c(=O)[nH]c(N3CCN(c4c(F)cc(OCC(O)CO)cc4F)CC3)nn12 (stereo not shown) [compound 9, 2-(4-(4-(2,3-Dihydroxypropoxy)-2,6-difluorophenyl)piperazin-1-yl)-7-methylimidazo[1,5-f][1,2,4]triazin-4(3H)-one]"
2,69.9,"Cc1ncc2c(=O)[nH]c(N3CCN(c4c(F)cc(OCCN5CCN(C)CC5)cc4F)CC3)nn12 [compound 25, 2-(4-(2,6-Difluoro-4-(2-(4-methylpiperazin-1-yl)ethoxy)phenyl)piperazin-1-yl)-7-methylimidazo[1,5-f][1,2,4]triazin-4(3H)-one]"
3,69.2,"COC(C)c1cc(F)c(N2CCN(c3nn4c(C)ncc4c(=O)[nH]3)CC2)c(F)c1 (stereo not shown) [compound 14, 2-(4-(2,6-Difluoro-4-(1-methoxyethyl)phenyl)piperazin-1-yl)-7-methylimidazo[1,5-f][1,2,4]triazin-4(3H)-one]"
4,67.2,"COCCOc1cc(F)c(C2(O)CCN(c3nn4c(C)ncc4c(=O)[nH]3)CC2)c(F)c1 [compound 17, 2-(4-(2,6-Difluoro-4-(2-methoxyethoxy)phenyl)-4-hydroxypiperidin-1-yl)-7-methylimidazo[5,1-f][1,2,4]triazin-4(3H)-one]"
5,63.1,"Cc1ncc2c(=O)[nH]c(N3CCN(c4c(F)cc(OCC(=O)N5CCCCC5)cc4F)CC3)nn12 [compound 28, 2-(4-(2,6-Difluoro-4-(2-oxo-2-(piperidin-1-yl)ethoxy)phenyl)piperazin-1-yl)-7-methylimidazo[1,5-f][1,2,4]triazin-4(3H)-one]"
6,48.8,"Cc1ncc2c(=O)[nH]c(N3CCN(c4c(F)cc(CN5CCOCC5)cc4F)CC3)nn12 [compound 10, 2-(4-(2,6-Difluoro-4-(morpholinomethyl)phenyl)piperazin-1-yl)-7-methylimidazo[1,5-f][1,2,4]triazin-4(3H)-one]"
7,45.7,"Cc1ncc2c(=O)[nH]c(N3CCN(c4c(F)cc(C(C)O)cc4F)CC3)nn12 (stereo not shown) [compound 13, 2-(4-(2,6-Difluoro-4-(1-hydroxyethyl)phenyl)piperazin-1-yl)-7-methylimidazo[1,5-f][1,2,4]triazin-4(3H)-one]"
8,44.1,"Cc1ncc2c(=O)[nH]c(N3CCN(c4c(F)cc(CN5CCN(C)CC5)cc4F)CC3)nn12 [compound 11, 2-(4-(2,6-Difluoro-4-((4-methylpiperazin-1-yl)methyl)phenyl)piperazin-1-yl)-7-methylimidazo[1,5-f][1,2,4]triazin-4(3H)-one]"
9,43.6,"Cc1ncc2c(=O)[nH]c(N3CCN(c4c(F)cc(OCCOC(=O)[C@H](C)N)cc4F)CC3)nn12 [compound 8, (S)-2-(3,5-Difluoro-4-(4-(7-methyl-4-oxo-3,4-dihydroimidazo[1,5-f][1,2,4]triazin-2-yl)piperazin-1-yl)phenoxy)ethyl 2-aminopropionate hydrochloride]"
10,38.7,"Cc1ncc2c(=O)[nH]c(N3CCN(c4c(F)cc(OCCO)cc4F)CC3)nn12 [compound 7, 2-(4-(2,6-Difluoro-4-(2-hydroxyethoxy)phenyl)piperazin-1-yl)-7-methylimidazo[1,5-f][1,2,4]triazin-4(3H)-one]"
11,32.3,"Cc1ncc2c(=O)[nH]c(N3CCN(c4c(F)cc(OCCN5CCOCC5)cc4F)CC3)nn12 [compound 4, 2-(4-(2,6-Difluoro-4-(2-morpholinoethoxy)phenyl)piperazin-1-yl)-7-methylimidazo[1,5-f][1,2,4]triazin-4(3H)-one]"
12,25.2,"Cc1ncc2c(=O)[nH]c(N3CCN(c4c(F)cc(OCCN5CCCCC5)cc4F)CC3)nn12 [compound 5, 2-(4-(2,6-Difluoro-4-(2-(piperidin-1-yl)ethoxy)phenyl)piperazin-1-yl)-7-methylimidazo[1,5-f][1,2,4]triazin-4(3H)-one]"
13,19.6,"Cc1ncc2c(=O)[nH]c(N3CCN(c4c(F)cc(OCCN(C)C)cc4F)CC3)nn12 [compound 6, 2-(4-(4-(2-(Dimethylamino)ethoxy)-2,6-difluorophenyl)piperazin-1-yl)-7-methylimidazo[1,5-f][1,2,4]triazin-4(3H)-one]"
